System: hPSCs (hESC and hiPSC lines)
Test: Intermediate mesoderm differentiation: PAX2/LHX1 immunostaining
Format: cell-based, human
Settings: CHIR pre-treatment 48 hours compared to 24 or 36 hours, all time points
Protocol: Mesendoderm differentiation—the media is changed to Advanced RPMI (A-RPMI, Invitrogen) supplemented with 1×L-glutamax and 1× penicillin/streptomycin and either CHIR99021 (CHIR, Stemgent), human Wnt3a (R&D systems), and/or human activin A (R&D systems) at the doses described. Definitive endoderm differentiation—cells are treated with A-RPMI+1×L-glu+1×P/S+5 μM CHIR for 24 hours, then A-RPMI+1×Lglu+1×P/S+100 ng/mL of activin A for 2-3 days. Hepatic differentiation—cells at the definitive endoderm stage are treated with A-RPMI+1×L-glu+1×P/S+1×B27 supplement (Invitrogen)+20 ng/mL BMP-4 (R&D systems)+10 ng/mL FGF2 (Invitrogen) for 5 days, then A-RPMI+1×L-glu+1×P/S+1×B27+10 ng/mL HGF for 5 days, then HCM Hepatocyte Culture Medium (Lonza) supplemented with 20 ng/mL Oncostatin M and 10 ng/mL HGF (Peprotech) for 5 days. Pancreatic differentiation—cells at the definitive endoderm stage are treated with DMEM/F12+2% FBS (Hyclone)+50 ng/mL FGF7 (R&D systems) for 2 days, then high-glucose DMEM (Mediatech)+1% B27+2 μM retinoic acid (Sigma)+0.25 μM KAAD cyclopamine (EMD Millipore)+100 ng/mL recombinant human Noggin (R&D systems) for 4 days, then high-glucose DMEM+1% B27+100 ng/mL Noggin+300 nM indolactam V (Stemgent)+1 μM ALK5 inhibitor II (Axxora) for 4 days. Anterior foregut endoderm differentiation—cells at the definitive endoderm stage are treated with DMEM/F12+1×L-glu+1×B27+200 ng/mL Noggin+10 μM SB431542 (Stemgent) for 3 days. For hindgut endoderm differentiation, cells at the definitive endoderm stage were treated with A-RPMI+1×L-glu+1×P/S+2% FBS+500 ng/mL FGF4 (R&D systems)+5 μM CHIR for 4 days. […]
Nuclei can be counterstained with DAPI (Sigma). […] Immunofluorescence is visualized using an inverted fluorescence microscope (Nikon Eclipse Ti, Tokyo, Japan). Quantification is performed by counting a minimum of five random fields at 10× magnification. […]

For `Cc1c[nH]c(-c2cnc(NCCNc3ccc(C#N)cn3)nc2-c2ccc(Cl)cc2Cl)n1` [CHIR99021], the PAX2 expression was “less PAX2 expression”.

From patent publication US20160272937A1, “METHODS OF GENERATING INTERMEDIATE MESODERM CELLS FROM HUMAN PLURIPOTENT STEM CELLS” (THE BRIGHAM AND WOMEN'S HOSPITAL, INC., priority 2013, published 2016)
